This note sets out measurements from the METLIN SMRT retention time set (Domingo-Almenara et al. 2019).

A short description of this data set: gradient 5% acetonitrile 3 min, to 50% in 2 min, to 85% in 15 min, held 3 min, 100 µL/min. To be noted: column: Zorbax Extend-C18 2.1 x 50 mm; eluents: water / acetonitrile, 0.1% formic acid. In outline: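 Retention times come from adduct peaks that were picked computationally and then checked by hand. The standards, pure and pooled in mixtures of ~100 molecules, were run on a Zorbax Extend-C18 column (2.1 × 50 mm, 1.8 μm) at 100 μL/min with water and acetonitrile, each with 0.1% formic acid. Detection was by quadrupole time-of-flight mass spectrometry in positive and negative ionization mode, with a dead volume of 40 μL and a dwell volume of 900 μL.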
`COc1ccccc1/C=C/c1nc(-c2cccc(-c3ccnn3C)c2)no1` returned an RP-LC retention time of 1200 s. The same measure for `CNC(=O)Cn1nc(C2CCN(C(=O)c3ccc(F)cc3)CC2)c2c1CCOC2`: 614 s; for `COc1ccc(OC)c(CN2C(=O)c3ccccc3C2C(=O)NCC2CCCO2)c1` (stereo not given): 641 s. Take `Cc1ccc(C2Cn3nnc(-c4nc(-c5cccc(Cl)c5)no4)c3CO2)c(C)c1` (stereo not given): the RP-LC retention time was determined as 1400 s. The same measure for `O=C(NCc1ccc2c(c1)OCO2)C1CCCN(c2nnc3ccc(Cl)cn23)C1` (stereo not given): 735 s; for `CCCn1cc(S(=O)(=O)NCc2ccc(C)cc2)c2cccnc21`: 951 s; for `Cn1c(=O)c2c(ncn2CC(=O)Nc2nccs2)n(C)c1=O`: 576 s. Next, `Cc1cccc(N2CCN(c3cc(C(=O)O)c4cc(NC(=O)C5CCC5)ccc4n3)CC2)c1C`: 777 s; `CCn1ccc(C(=O)NC2CCN(c3nnc4ccc(Cl)cn34)CC2)n1`: 581 s. The same measure for `Cc1ccc(C)c(NC(=O)C2CCCN(c3cn[nH]c(=O)c3)C2)c1` (stereo not given): 668 s; for `Cc1ccc(-n2nc(N3CCCN(S(=O)(=O)c4ccccc4C)CC3)ccc2=O)cc1`: 910 s; for `CC(C)C(=O)NC(C)c1nc2ccccc2n1CC(N)=O` (stereo not given): 503 s. `O=C(NC1CCCC1)C1CCN(S(=O)(=O)c2cc(C(=O)N3CCOCC3)cs2)CC1` had an RP-LC retention time of 682 s. Next, `Cc1cccc(NC(=O)N2CCCC2c2cc(C(C)C)on2)c1` (stereo not given): 967 s. Next, `COc1ccc(OC)c(NS(=O)(=O)c2cc3c(s2)CCN(C(=O)C2CCC2)C3)c1`: 866 s; `CCOC(=O)C1=C(CN2CCCC(c3ccccc3)C2)NC(=O)NC1c1cccc(OC)c1OC` (stereo not given): 695 s; `Cc1cc(C)c(-c2noc(C)n2)c(NC(=O)c2ccc(Cl)cc2)n1`: 790 s. Next, `O=C(Cn1cccc1-c1nc(-c2ccc3c(c2)OCO3)no1)NCCC1=CCCCC1`: 1150 s; `Cc1ccc(CN2CCN(C3CCN(S(=O)(=O)c4ccc(C)c(Cl)c4)CC3)C(=O)C2=O)cc1`: 990 s; `CCCn1c(C2CCN(C(=O)Nc3ccc(C)cc3)CC2)cc(=O)n2nccc12`: 653 s. Turning to `CCNC(=O)c1cc(-c2ccccc2)n(C)c1C`, the RP-LC retention time was 805 s. Next, `O=C(NCCCO)C1CCCN(c2ccc(Sc3ccc(Br)cc3)nn2)C1` (stereo not given): 704 s. On to `Cc1cccc(NC(=O)c2cnn3c2CCCC3)c1`, for which the RP-LC retention time came out at 776 s.

Compound `CCn1cc2c3c(cccc31)CN(C(=O)Nc1ccc(OC)c(Cl)c1)CC2` gave an RP-LC retention time of 977 s. As for `CCN(C(=O)C1CCC(C)CC1)c1nc(-c2ccccc2)cs1` (stereo not given), the RP-LC retention time is 838 s. The same measure for `CCN(C(=O)Cc1c(C(=O)O)c(C)cn1C)c1ccccc1`: 722 s; for `CC(C)(C)c1ccc(C(=O)N2CCN=C2N2CCCC2)cc1`: 738 s.

Turning to `CCN1C(=O)COc2ccc(-c3csc(NC(=O)c4ccccc4)n3)cc21`, the RP-LC retention time was determined as 952 s. Next, `CCOc1ccc(/C=C/C(=O)Nc2nc(-c3ccc(C)cc3)c(C)s2)cc1`: 726 s; `O=C(COc1ccccc1-c1nnc(-c2ccccc2)o1)NCc1ccco1`: 961 s. The same measure for `CC(C)c1c(C(=O)O)nnn1Cc1ccc(Cl)cc1`: 788 s. `COCC(=O)N1CCC(Oc2nccnc2N2CCc3ccccc32)C1` (stereo not given) had an RP-LC retention time of 779 s. Next, `COC(=O)c1cccc(C(=O)Nc2cccc(OC)c2)n1`: 817 s. The same measure for `Cn1c(=O)sc2cc(S(=O)(=O)N3CCC(C(=O)N4CCc5ccccc54)CC3)ccc21`: 933 s; for `CCOC(=O)N1CCN(c2nc(F)c3c(c2F)S(=O)(=O)CCN3Cc2ccco2)CC1`: 962 s; for `COc1ccc(C2(C(=O)N3CCO[C@@H](COc4ccccn4)[C@@H]3c3ccccc3)CC2)cc1`: 1070 s. The same measure for `COc1ccccc1NC(=O)Nc1c(-c2cccc(C)c2)nc2ccccn12`: 700 s; for `CCc1cccc(C)c1NC(=O)C1CCN(S(=O)(=O)c2c(C)nn(-c3ccccc3)c2C)CC1`: 976 s; for `CCCCc1c(-c2ccc(OC)cc2)[nH]c2nccnc12`: 912 s. `Clc1ccc(Cc2noc(Cc3nc(-c4ccccc4)cs3)n2)cc1` showed an RP-LC retention time of 1170 s. The same measure for `Cc1ccc(S(=O)(=O)Nc2ccc(Cn3cncn3)cc2)cc1Cl`: 760 s. In the case of `CSc1cccc(NC(=O)CN2CCC3(CC2)N=C(c2ccc(Cl)cc2)C(=O)N3)c1`, the RP-LC retention time stood at 627 s. Next, `O=C(CC1CCCCC1)NC1CCN(C(=O)c2cc(-c3cccc(Cl)c3)n[nH]2)CC1`: 797 s; `CO[C@@H]1[C@H](OC(=O)NC(=O)CCl)CC[C@]2(CO2)[C@H]1[C@@]1(C)O[C@@H]1CC=C(C)C`: 692 s; `Cc1nc(-c2ccc(NC(=O)N3CCCc4ccccc43)cc2)no1`: 900 s. The same measure for `CC(Cc1ccco1)NC(=O)c1ccc2nc(CCc3ccccc3)oc2c1` (stereo not given): 714 s; for `COc1ccc(C(=O)Nc2ccc3c(c2)Sc2ncccc2C(=O)N3C)cc1`: 752 s; for `Cc1cc(N2CCN(C)CC2)nc2ccc(NC(=S)NCCN3CCc4ccccc4C3)cc12`: 538 s.

Take `CCCN(C(=O)Nc1ccc(CC)cc1)c1nc(-c2ccc(C3CCCCC3)cc2)cs1`: the RP-LC retention time was found to be 619 s. The compound `COc1ccc(-c2nnc3n2CCN(Cc2ccc(C)o2)C3)cc1` showed an RP-LC retention time of 647 s. The same measure for `O=C(c1ccsc1)N1CCCn2nc(-c3ccc(Cl)cc3)cc2C1`: 945 s.

For `Cc1ccc(-n2ccnc(NC(=O)Nc3ccc(F)c(Cl)c3)c2=O)cc1C`, the RP-LC retention time worked out at 1160 s. `Cn1cc2c(N3CCSCC3)nc(C(=O)N3CCN(C4CCCC4)CC3)nc2n1` showed an RP-LC retention time of 579 s.

`CCOc1ccc(-c2nc(-c3cccc(-c4ccnn4CC)c3)no2)cc1OCC` showed an RP-LC retention time of 1300 s.

`CCOc1cccc(-c2noc(CN3C(=O)COc4ccc(C(C)(C)C)cc43)n2)c1`: the RP-LC retention time was 1380 s. For the compound `COCCc1noc(-c2nc(-c3ccc(C)cc3)no2)n1`, the RP-LC retention time was 1120 s.

On to `CC1=NS(=O)(=O)N(Cc2ccccc2)C=C1C(=O)OCc1cc(F)ccc1F`, for which the RP-LC retention time is 1080 s.

Take `CCCn1c(=O)c(-c2ccc(C(=O)NCCOC)cc2)nc2cccnc21`: the RP-LC retention time was found to be 796 s. Take `CCCOc1nccnc1N1CCC(NC(=O)c2ccoc2)C1` (stereo not given): the RP-LC retention time is 585 s. Next, `Cc1c(-c2noc(-c3ccccc3)n2)nnn1-c1ccc(F)cc1`: 1070 s; `CS(=O)(=O)Nc1cccc(NC(=O)c2ccc(N3CCCC3)nn2)c1`: 598 s; `FC(F)(F)c1cnc(N2CCN(Cc3ccccc3)CC2)c(Cl)c1`: 717 s. The same measure for `Cc1cc(C)c(NC(=O)C2CCCN(c3nc4ccccc4nc3C(F)(F)F)C2)c(C)c1` (stereo not given): 701 s; for `C=C[C@H]1CN2CC[C@H]1C[C@H]2[C@H](O)c1ccnc2ccc(OC)cc12`: 592 s.

With `Cc1nn2c(CNS(=O)(=O)c3cccc(Cl)c3C)c(-c3ccccc3)nc2s1`, the RP-LC retention time is 942 s. Next, `COc1cc(Cl)c(NC(=O)C2CCN(C(=O)C3Sc4ccccc4NC3=O)CC2)c(OC)c1` (stereo not given): 795 s; `CC(=O)Nc1ccc(C(=O)NCc2cccs2)c(N2CCCCC2)c1`: 676 s; `CCCNC(=O)CCc1cc2cc(OC)ccc2[nH]c1=O`: 634 s. `CCc1ccccc1N(C)C(=O)Cc1c(C(=O)O)c(C)cn1C` registered an RP-LC retention time of 815 s.

`O=C(Nc1ccc(F)cc1)OC1CCCC(NC(=O)c2ccc(Br)o2)C1` (stereo not given): the RP-LC retention time turned out to be 853 s.

For `CC1(C)COc2ccc(NC(=O)c3c(F)cccc3Cl)cc2NC1=O`, the RP-LC retention time was determined as 810 s. Next, `CCOc1ccc(-c2csc3c(=O)n(Cc4ccc(Br)cc4)cnc23)cc1OCC`: 1210 s. Next, `Cc1cc(C)c(S(=O)(=O)N2CCCC2c2nncn2Cc2ccncc2)c(C)c1` (stereo not given): 617 s.

In turn, `CCOc1ccccc1NC(=O)Cn1nc2c(Oc3ccccc3C)nccn2c1=O` had an RP-LC retention time of 935 s. Next, `Cc1cc2c(cc1S(=O)(=O)N1CCCCC1)N(C(=O)C1CC1)CC2`: 980 s. The compound `O=C(Nc1cccc2nsnc12)C1CCN(c2ccc(-c3cccs3)nn2)CC1` registered an RP-LC retention time of 668 s. Next, `COc1ccc(Cl)cc1NS(=O)(=O)c1ccc(-c2nnc(C3CCC3)o2)o1`: 958 s; `COc1ccc(-c2ncc3c(=O)n(Cc4ccccc4Cl)c(=O)n(C)c3n2)cc1`: 1210 s. Next, `CCOc1ccc(-n2cc(C(=O)OCC(=O)OC(C)C)c3ccccc3c2=O)cc1`: 1140 s; `CC(C(=O)NCc1ccco1)C1CCOCC1` (stereo not given): 644 s.
